Experimental data reported in patent US11969499B2, “Hydrogel delivery of sting immunotherapy for treatment cancer” (WILLIAM MARSH RICE UNIVERSITY, priority 2017, dated 2024).
“Also recorded” adds a separate entry of the source. Like-named read-outs stand apart in the source and are kept apart here.

How the values were obtained:
[1] = system: MOC1 tumors; details: multiple intratumoral injections of CDN alone, cited from earlier work
[2] = system: non-T cell-inflamed head and neck tumors; details: in vivo; cited from earlier work
[3] = system: MOC2-E6E7 tumors; assay: Tumor growth and survival study (Examples 3-4); type: in vivo, C57BL/6 mice
Experimental: Tumor growth and survival study. For tumor experiments, 6-8 week old wild-type C57BL/6 female mice were maintained in a pathogen-free environment for the study. All protocols were in accordance with the guidelines for humane treatment of laboratory animals by the National Institutes of Health, the Animal Welfare Committee and the Center for Laboratory Animal Medicine and Care (CLAMC) at the University of Texas Health Science Center at Houston. Mice were injected with MOC2-E6E7 tumor cells on day 0 into the maxillary oral vestibule (30,000 cells in 30 μL volume), followed by controls or gel injections loaded with or without CDN on day 3 in the same oral cavity location (20 lag CDN per 30 μL injection). Tumor growth was measured using calipers and body weight was taken in all subjects two to three times per week. Photographs were also obtained. Kaplan-Meier survival and tumor growth curve analyses were performed from data obtained. Mice that maintained tumor clearance for 100 days were re-challenged with MOC2-E6E7 tumor cells again at day 105 and monitored similarly. All endpoints in tumor growth curve and survival data are a result of euthanasia due to excessive tumor burden, defined as tumor reaching 12 mm, tumor ulceration, or a weight loss of greater than 20%. The inventors observed no signs of unexpected disease or discomfort in the mice over the course of the experiments.
Statistical methods. Statistical analyses for Kaplan-Meier survival curves were performed using the log-rank/Mantel-Cox test with GraphPad Prism (GraphPad, San Diego, CA). For tumor growth curves, the Wilcoxon rank sum test was used to compare tumor size between STINGel and other groups. No adjustment for multiple testing was made because the study is novel and exploratory. All p values are two-sided and p values less than 0.05 were considered as significant. All statistical analyses were performed using the SAS software (version 9.4, the SAS Institute, Cary, NC).

[4] = system: MOC-2-E6E7 tumors; assay: MOC-2-E6E7 orthotopic murine model of HNSCC, survival (Example 2, FIG. 2E); parameters: species or system C57BL/6 mice; details: mouse, in vivo
Experimental: MOC-2-E6E7 Orthotopic murine model of HNSCC. 6 week-old male and female C57BL/6 mice will be inoculated in the left maxillary vestibule with MOC-2-E6E7 cells (30,000 cells in 30 μl volume). Animals will be monitored using a body condition scoring system to ensure they maintain a healthy weight and show no obvious signs of distress. At Day 14 post-tumor inoculation, STINGel (20 jug CDN in 30 μl of MDP hydrogel) or controls (as above) are injected into the oral tumor site. Animal studies will be done in triplicate, independent experiments for significance. Between-group differences in flow cytometric data will be statistically evaluated with one-way ANOVA and post-hoc analysis using Tukey's method. Differences between groups will be considered significant if p<0.05. In efficacy studies, Kaplan-Meier survival curves will be compared using the log-rank/Mantel-Cox test and tumor growth curves will be analyzed using the Koziol method (Koziol et al., 1981; 1982).

[5] = system: MOC2 tumors; details: multiple CDN injections; cited from earlier work
[6] = system: MOC2-E6E7 cells; assay: In vitro live/dead cell viability in unloaded and CDN-loaded MDP hydrogel; type: cell-based; details: for percent cell viability per mm3 of hydrogel vs no CDN / percent cell viability per mm3 of hydrogel: Day 7; for cytocompatibility of unloaded hydrogel: no CDN, cells in 3-D gel, up to 7 days
Experimental: Preparation of cell—laden hydrogel for in vitro viability. MDP gel formulations with MOC2-E6E7 cells were prepared by diluting a cell suspension of 2,000,000 cells/mL in 2×HBSS with an equal volume of 4×CDN. The resulting suspension was then added to an equal volume of sterile 2 wt. % peptide in 298 mM sucrose and mixed to produce final samples of approximately 35,000 cells per 70 μL of 1 wt. %, 149 mM sucrose gel. Gels were then transferred into 0.4 cm 2 wells of Lab-Tek 16 well glass chamber slides (Thermo Fischer, Rochester, NY), pipetted to produce 70 μL pucks with flat profiles. Samples were allowed to shear recover for 5-10 mM before adding 200 μL cell media on top of each gel. The cell media was changed every 2 days, taking care to not dislodge the hydrogel material.
Cell viability was determined at each desired time point by performing live/dead assays as described below. Live/dead staining solution was prepared in DPBS with 2 μM Calcein AM for live cells (Life Technologies), 4 μM Ethidium homodimer for dead cells (Life Technologies), and 5 μg/mL Hoechst 33342 for nuclei (MP Biomedicals, Solon, OH). […] Cell media was removed and the gels were washed with PBS. Samples were then stained with 100 μL of prepared solution by incubating at RT for 15-30 mM. Following staining, gels were placed in PBS for immediate analysis by confocal microscopy. Gels were analyzed by z-stack imaging (100 μm) using a Nikon A1 Confocal Microscope with 20× air and 40× water objectives (405 nm blue channel laser, 488 nm green channel laser, 561 nm red channel laser). Image processing was done using NIS Elements, and live/dead cell counting was performed using the cell identification tool in Imaris 3D/4D Image Processing software, manually verified with nuclear counts when resolution allowed.

[7] = CDN drug release kinetics from hydrogels (UV absorbance at 259 nm); type: physicochemical; details: for CDN release compared to collagen (FIG. 5B): 30 μL gels, 910 μM CDN, under 200 μL HBSS, 24 h; for release profile of gels (FIG. 3A): CDN release, preliminary data
Experimental: CDN release kinetics. 30 μL CDN-loaded gel aliquots are deposited into 96 well plates with 200 μL of buffer added to the top of the gels at time point t=0. For all kinetics experiments, a Thermo Scientific Nanodrop 2000C Spectrophotometer is used to measure UV absorbance at 259 nm, the characteristic wavelength of maximum absorbance for the adenine nucleobases present in the CDN. See FIG. 1A for an example of preliminary release kinetics data.
CDN drug release kinetics. To study the kinetics of CDN release from STINGel vs. collagen gel, 30 μL CDN-loaded gel aliquots were deposited into Falcon® 96 well flat bottom polystyrene plates (Becton Dickinson Labware, Franklin Lakes, NJ). For each experiment, cylindrical pucks of the 30 μL gel aliquots were created in each well, allowing the pipetted gels to shear recover for at least 5 mM before adding 200 μL of buffer (1×HBSS for STINGel, lx DPBS for collagen, according to gelation requirements) to the top of the gels at what was defined as t=0 for the start of kinetics experiments. The buffer height was approximately 2.5 mm, the gel thickness approximately 0.5 mm, and the gel's solvent exposed surface area approximately 12.6 mm^2.
A Thermo Scientific Nanodrop 2000C Spectrophotometer was used to measure UV absorbance at 259 nm, the characteristic wavelength of maximum absorbance for the CDN's adenine nucleobases. An extinction coefficient of 24,000 M^−1 cm^−1 at 259 nm was used. Absorbance measurements were taken by removal of 1 μL aliquots from the surface of the buffers, measuring the increase in absorbance over time. Release of CDN was measured over the course of the first 24 hours and converted to total percent released, with additional measurements also made at 48 and 72 hours to confirm that the samples had reached equilibrium.

[8] = system: CD45+/CD11b+/CD11c+ dendritic cells; assay: Flow cytometric analysis of implant infiltration; type: in vivo, mice; details: for recruitment of immune cells to the hydrogel in vivo: subcutaneous flank of mice, within 3 days
Experimental: Flow cytometric analysis of implant infiltration. Implanted gels are harvested from mice, digested and processed into single cell suspension. Cells are incubated with blocking antibody, followed by addition of antibodies to create three panels: myeloid cells (CD45, Gr-1, Ly-6C, CD11b, F4/80), lymphoid cells (CD45, NK-1.1, CD11b, CD3e, CD8a, CD4, CD19) and dendritic cells (CD45, CD8a, CD11b, CD11c, PDCA-1 and CD103). For each time point five mice with two hydrogel boluses are assessed for an n of 10.

[9] = In vivo subcutaneous hydrogel implants, histology (Masson's trichrome, H&E); details: 910 μM CDN where loaded
Experimental: In vivo subcutaneous implants. 200 μL subcutaneous injections are made in two separate 1-inch spaced sites on the dorsal flank. At tested time points mice are euthanized and the dorsal skin around the entire implant is removed, washed with PBS, and fixed in formalin for 24 hours prior to tissue processing (Wellings & Atherton, 1997; Guy & Fields, 1997). Details are provided in the Vertebrate Animal section. Tissue is processed to paraffin blocks, sectioned at 7 μm, deparaffinized and stained for cellular infiltrate using hematoxylin and eosin (H&E) and Masson's Trichrome. Here, and elsewhere, male and female populations will be assessed combined as well as separately to determine if sexual dichotomy exists in the biomaterial interaction and regenerative response.
Subcutaneous experiments and histology. Male/female mice (C57BL/6 strain) of age 8-12 weeks were obtained for subcutaneous experiments, which were conducted with Rice IACUC approval and according to NIH guidelines. Mice were injected with 40 μL CDN-loaded hydrogel (910 μM CDN) or 100 μL unloaded hydrogel in each of four separate sites in the subcutaneous space of the dorsal flank. At days 3 and 7 the mice were euthanized and the dorsal skin around the entire implant was removed, fixed overnight in 10% neutral buffered formalin, processed and paraffin embedded by the Baylor College of Medicine Pathology Core, and finally sectioned at 5 μm thickness for Masson's trichrome staining and hematoxylin and eosin (H&E) staining (FIGS. 14A-F and 16A-F).

[10] = 30 μL gels loaded with 910 μM CDN under 200 μL buffer

For Nc1ncnc2c1ncn2[C@@H]1O[C@@H]2COP(O)(=S)O[C@@H]3C(O)[C@@H](COP(O)(=S)O[C@H]2[C@H]1O)O[C@H]3n1cnc2c(N)ncnc21 (stereo partly drawn) [CDN, dithio-(RP,RP)-[cyclic[A(2′,5′)pA(3′,5′)p]]], the “efficacy / tumor rejection” value [1] is given as “only to a subset of MOC1 tumor rejection”, the “efficacy / tumor rejection” value ([1]; listed as CDN alone) is given as “minimal efficacy” and the efficacy [2] is given as “completely ineffective”. The “mice surviving until the endpoint of the study” value ([3]; 140 days post-tumor cell inoculation, single injection day 3, 20 μg CDN in 30 μL, n=10) was 10%, the “effect on tumor growth” value ([3]; single injection day 3 post inoculation) was “ineffective in preventing tumor growth” and the “mortality before day 60” value [4] was 100%. The tumor rejection [5] was “unsuccessful MOC2 tumor rejection”, the “percent cell viability per mm3 of hydrogel vs no CDN” value ([6]; 5 μM CDN) was “equivalent” and the “percent cell viability per mm3 of hydrogel vs no CDN” value ([6]; 57 μM CDN) was “equivalent”. For the same compound, the “percent cell viability per mm3 of hydrogel vs no CDN” value ([6]; 114 μM CDN) was “equivalent”, the “percent cell viability per mm3 of hydrogel” value ([6]; 228 μM CDN) was “reduced cell viability” and the “percent cell viability per mm3 of hydrogel” value ([6]; 455 μM CDN) was “no cell viability”. The “percent cell viability per mm3 of hydrogel” value ([6]; 910 μM CDN) was “no cell viability” and the “max tolerable dose cells can experience in their local environment” value ([6]; without the massive cell death observed at 455 μM and above) was 228 µM.
In the case of “E2(SL)6E2 (SEQ ID NO: 3) (EESLSLSLSLSLSLEE) [additional multidomain peptide hydrogel with glutamate termini]”, the “CDN release compared to collagen (FIG. 5B)” value [7] is reported as “better (slower) release compared to collagen” and the “release profile of gels (FIG. 3A)” value [7] is reported as “intermediate release rates”.
In the case of “K2(SL)6K2 (SEQ ID NO: 1) (Ac-KKSLSLSLSLSLSLKK-NH2) [MDP gel, self-assembling multidomain peptide hydrogel, acetylated N-terminus and C-terminal amide]”, the “decrease in release rate compared to collagen control gels, factor” value [7, 10] is reported as 8, the “maximum release of loaded CDN (plateau/equilibrium)” value [7, 10] is reported as “approximately 68%” and the “release rate in the initial linear release phase” value [7, 10] is reported as 1.0 nmol CDN/hour. The “time of CDN release until equilibrium with surrounding buffer” value [7, 10] was 14 to 15 h, the “release profile of gels (FIG. 3A)” value [7] was “intermediate release rates” and the “recruitment of immune cells to the hydrogel in vivo” value ([8]; listed as Lys-MDP) was “substantial population”. The “recruitment of immune cells to the hydrogel in vivo” value ([8]; listed as MDP hydrogel) was “robust recruitment of immunocytes”, the “CD45+/CD11b+/CD11c+ dendritic cells” value ([8]; three days after subcutaneous injection, un-loaded) was 13.5% and the “mice maintaining tumor clearance and reaching reinoculation point” value ([3]; day 105 after initial inoculation, n=10 per group) was “No mice”. The “mortality before day 60” value [4] was 100%, the “cytocompatibility of unloaded hydrogel” value ([6]; listed as Lys-MDP) was “substantial MOC-2-E6E7 proliferation (green cells) & minimal cell death” and the “cytocompatibility of unloaded hydrogel” value ([6]; listed as MDP hydrogel) was “not intrinsically toxic”. For the same compound, the “cytocompatibility of unloaded hydrogel” value ([6]; listed as unloaded MDP gel) was “fully biocompatible”, the “cytocompatibility of unloaded hydrogel” value ([6]; listed as unloaded MDP hydrogel) was “cells are able to survive and proliferate within the 3-D hydrogel matrix” and the “cellular infiltration of implant” value ([9]; 3 days post subcutaneous injection, listed as MDP control) was “even infiltration of cells”. The “cellular infiltration of implant” value ([9]; 3 days post subcutaneous injection, listed as MDP unloaded control) was “even infiltration of cells”, the “cellular infiltration of implant” value ([9]; 3 days post subcutaneous injection, listed as unloaded MDP) was “Uniform cellular infiltration” and the “cellular infiltration of implant” value ([9]; 7 days post subcutaneous injection) was “even infiltration of cells”.
For “R2(SL)6R2 (SEQ ID NO: 4) (RRSLSLSLSLSLSLRR) [additional multidomain peptide hydrogel with arginine termini]”, the “CDN release compared to collagen (FIG. 5B)” value [7] was “better (slower) release compared to collagen; also recorded: the best of the group” and the “release profile of gels (FIG. 3A)” value [7] was “slowest, most prolonged release”.
